In US12594266B2, “Triterpenoid antifungals for the treatment or prevention of Pneumocystis spp. pneumonia” (priority 2019, dated 2026):

Columns and labels:
P. murina [1] = assay: Mouse model of prophylaxis for PCP (C3H/HeN mice, intranasal P. murina); format: in vivo, Pneumocystis murina; conditions: for Percent Survival at Day 7 / Percent Survival at Day 14 / Percent Survival at Day 21 / Percent Survival at Day 28 / Percent Survival at Day 35 / Percent Survival at Day 42: prophylaxis, mice
Method: Compound Preparation: SCY-078 (ibrexafungerp) was prepared in 0.5% methyl cellulose for oral administration. A correction factor of 1.37 for this lot was taken into account for salt and water content. Mice in the high dose group received 0.6 mg of SCY-078 BID, mid dose group received 0.3 mg of SCY-078 BID, and low dose group received 0.15 mg of SCY-078 BID, based on average mouse weights of 20 g.
P. murina prophylaxis study method: C3H/HeN mice (Charles River) were infected by intranasal inoculation of P. murina organisms at 2×10^6/50 μl from a liquid nitrogen repository. Prior to inoculation, the P. murina were pre-incubated overnight in RPMI 1640 medium supplemented with calf serum and antibiotics to eliminate any bacterial contamination. The immune systems of the mice were suppressed by the addition of dexamethasone at 4 mg/liter to acidified drinking water (hydrochloric acid at 1 ml/liter). Acidification is used to prevent secondary microbial infections. The mice were divided into a negative (non-treated) control group (control steroid—C/S), positive control group (trimethoprim/sulfamethoxazole—TMP/SMX) and treatment groups. SCY-078 was administered orally (po) BID at the specified doses. The mice were started on the prophylaxis regimen at the same time they were inoculated. Immune suppression and treatment continued for the entire 6-week study. At the conclusion of that time, the mice were euthanized by CO2 and lungs processed for analysis by homogenization. Slides were made from the lung homogenates at different dilutions and stained with Diff-Quik to quantify total nuclei (trophic forms) and with cresyl echt violet to quantify the asci (cyst forms).
(§1) Calculations: Efficacy was based on the reduction of organism burden between the treatment groups and the negative control group as determined by microscopic evaluation. The nuclei and asci counts for each lung were log transformed and statistical analysis was determined by the analysis of variance (ANOVA); individual groups were compared by the Student-Newman-Keuls t test for multiple comparisons using GraphPad Prism. Statistical significance was accepted at a P value≤0.05.

P. murina [2] = assay: Mouse model of treatment of PCP, early response (C3H/HeN mice); format: in vivo, Pneumocystis murina
P. murina [3] = assay: Mouse model of treatment of PCP, 28-42 days (Balb/c mice); format: in vivo, Pneumocystis murina
Method: Compound Preparation: SCY-078 (ibrexafungerp) was prepared in 0.5% methyl cellulose for oral administration. A correction factor of 1.37 was taken into account for salt and water content. […]
P. murina treatment study methods: Balb/c mice ordered from Charles River were infected with P. murina pneumonia through exposure to mice with a fulminant P. murina infection (seed mice). These mice were immune suppressed by the addition of dexamethasone at 4 mg/liter to the drinking water. Sulfuric acid at 1 ml/liter was also added to the drinking water for disinfection. The seed mice were rotated within the cages for 2 weeks and then removed. After the mice developed a moderate infection level (approximately 5 weeks), the mice were divided into a negative control group (control steroid), positive control group (TMP/SMX), and treatment groups. Drugs to be tested were administered by oral gavage (PO) on a mg/kg/BID basis for up to 6 weeks. At the end of the treatment, the mice were euthanized by CO2 and lungs were processed for analysis. Slides were made from the lung homogenates at different dilutions and stained with Diff-Quik™ to quantify the nuclei (all life cycle stages) and with cresyl echt violet to quantify the asci.
as §1

[4] = human, in vivo
Source text: The safety and tolerability of SCY-078 has been evaluated in more than 900 subjects in ˜20 clinical trials, at different doses and treatment durations, including administration for up to 1 year. […] Serious adverse events possibly related to SCY-078 have been very rare and interruption or discontinuation of therapy due to adverse reactions has been uncommon. Additionally, the safety profile of oral SCY-078 has been evaluated in standard long-term non-clinical toxicology studies including administration for 9 months in dogs and 6 months in rats, at doses and exposures higher than those anticipated in humans, in line with ICH guidelines. The results from these non-clinical studies support the long-term administration of oral SCY-078 in humans. SCY-078 is currently under evaluation in ongoing clinical trials for the treatment of fungal infections such as candidiasis and aspergillosis. SCY-078 has not been evaluated in clinical trials for the treatment or prevention of PCP.

[5] = patients with HIV; cited from earlier work
[6] = 30 mg/kg BID po, 6 weeks prophylaxis
[7] = all 3 dose levels (30, 15, 7.5 mg/kg BID po), 6 weeks prophylaxis, lung
[8] = both dose levels (30 and 15 mg/kg BID po), Day 14 and Day 21
[9] = 15 and 10 mg/kg groups, days 28 and 35
[10] = all dose levels (15, 10, 5 mg/kg BID po), days 28, 35 and 42

Question: Which “Percent Survival at Day 7” value (P. murina [1]; 7.5 mg/kg BID po) does the source give for `CC(C)[C@@H](C)[C@@]1(C)CC[C@]2(C)[C@H]3CC[C@@H]4[C@@]5(COC[C@@]4(C)[C@@H](OC[C@](C)(N)C(C)(C)C)[C@H](n4ncnc4-c4ccncc4)C5)C3=CC[C@@]2(C)[C@@H]1C(=O)O` [SCY-078, (1S,4aR,6aS,7R,8R,10aR,10bR,12aR,14R,15R)-15-[[(2R)-2-amino-2,3,3-trimethylbutyl]oxy]-8-[(1R)-1,2-dimethylpropyl]-14-[5-(4-pyridinyl)-1H-1,2,4-triazol-1-yl]-1,6,6a, 7,8,9,10,10a, 10b, 11,12,12a-dodecahydro-1,6a, 8,10a-tetramethyl-4H-1,4a-propano-2H-phenanthro [1,2-c]pyran-7-carboxylic acid] here?
Answer: The value was 100%.

Question: What about the “Percent Survival at Day 14” value (P. murina [1]; 7.5 mg/kg BID po) of the same compound?
Answer: The value was 90%.

Question: And the “Percent Survival at Day 21” value (P. murina [1]; 7.5 mg/kg BID po)?
Answer: Its value is 90%.

Question: And the “Percent Survival at Day 28” value (P. murina [1]; 7.5 mg/kg BID po)?
Answer: The value was 90%.

Question: And the “Percent Survival at Day 35” value (P. murina [1]; 7.5 mg/kg BID po)?
Answer: The value was 90%.

Question: What about the “Percent Survival at Day 42” value (P. murina [1]; 7.5 mg/kg BID po) of the same compound?
Answer: The value was 90%.

Question: And the “Percent Survival at Day 7” value (P. murina [1]; 15 mg/kg BID po)?
Answer: The value was 100%.

Question: And the “Percent Survival at Day 14” value (P. murina [1]; 15 mg/kg BID po)?
Answer: Its value is 90%.

Question: What about the “Percent Survival at Day 21” value (P. murina [1]; 15 mg/kg BID po) of the same compound?
Answer: Its value is 90%.

Question: What about the “Percent Survival at Day 28” value (P. murina [1]; 15 mg/kg BID po) of the same compound?
Answer: Its value is 80%.

Question: What about the “Percent Survival at Day 35” value (P. murina [1]; 15 mg/kg BID po) of the same compound?
Answer: The value was 80%.

Question: What about the “Percent Survival at Day 42” value (P. murina [1]; 15 mg/kg BID po) of the same compound?
Answer: The value was 80%.

Question: And the “reduction of asci burden compared with TMP/SMX” value (P. murina [1]; [6])?
Answer: Its value is “performed equally as well”.

Question: What about the “survival versus vehicle treated negative control group” value (P. murina [1]; [6]) of the same compound?
Answer: Its value is “significant improvement in survival”.

Question: What about the “Percent Survival at Day 7” value (P. murina [1]; 30 mg/kg BID po) of the same compound?
Answer: Its value is 100%.

Question: And the “Percent Survival at Day 14” value (P. murina [1]; 30 mg/kg BID po)?
Answer: The value was 100%.

Question: What about the “Percent Survival at Day 21” value (P. murina [1]; 30 mg/kg BID po) of the same compound?
Answer: The value was 100%.

Question: And the “Percent Survival at Day 28” value (P. murina [1]; 30 mg/kg BID po)?
Answer: The value was 100%.

Question: What about the “Percent Survival at Day 35” value (P. murina [1]; 30 mg/kg BID po) of the same compound?
Answer: Its value is 100%.

Question: And the “Percent Survival at Day 42” value (P. murina [1]; 30 mg/kg BID po, * statistically significant difference vs C/S group)?
Answer: The value was 100* Percent.

Question: What about the “asci burden versus vehicle treated negative control group (C/S)” value (P. murina [1]; [7]) of the same compound?
Answer: Its value is “significantly reduced”.

Question: What about the “nuclei burden versus vehicle treated negative control group (C/S)” value (P. murina [1]; [7]) of the same compound?
Answer: The value was “significantly reduced”.

Question: What about the “magnitude of the effect against nuclei burden compared with TMP/SMX” value (P. murina [2]; both dose levels) of the same compound?
Answer: The value was “lower than observed with the TMP/SMX control”.

Question: And the “asci burdens versus vehicle treated negative control group (C/S)” value (P. murina [2]; [8])?
Answer: Its value is “significantly reduced”.

Question: What about the “nuclei burdens versus vehicle treated negative control group (C/S)” value (P. murina [2]; [8]) of the same compound?
Answer: Its value is “significantly reduced”.

Question: What about the “extent of asci burden reduction compared with TMP/SMX” value (P. murina [2]; both dose levels, Day 14 and Day 21) of the same compound?
Answer: The value was “to a similar extent”.

Question: And the “reduction of asci burden compared with TMP/SMX” value (P. murina [2]; both dose levels, day 7)?
Answer: Its value is “statistically significantly better”.

Question: What about the “asci observed in lung” value (P. murina [3]; [9]) of the same compound?
Answer: The value was “No asci were observed”.

Question: And the “reduction of asci burden compared with positive control (TMP/SMX)” value (P. murina [3]; [9])?
Answer: Its value is “worked equally as well”.

Question: What about the “asci observed in lung” value (P. murina [3]; all 3 dose groups, day 42) of the same compound?
Answer: Its value is “some asci were observed”.

Question: What about the “asci burdens versus vehicle treated negative control group (C/S)” value (P. murina [3]; [10]) of the same compound?
Answer: The value was “significantly reduced”.

Question: And the “nuclei burdens versus vehicle treated negative control group (C/S)” value (P. murina [3]; [10])?
Answer: The value was “significantly reduced”.

Question: What about the “reduction of asci burden compared with positive control (TMP/SMX)” value (P. murina [3]; all dose levels, day 42) of the same compound?
Answer: The value was “worked equally well”.

Question: What about the “interruption or discontinuation of therapy due to adverse reactions” value [4] of the same compound?
Answer: Its value is “uncommon”.

Question: What about the “most common adverse events” value [4] of the same compound?
Answer: The value was “mild to moderate, transient gastrointestinal disorders”.

Question: And the “serious adverse events possibly related to SCY-078” value [4]?
Answer: The value was “very rare”.

Question: For “Trimethoprim-sulfamethoxazole [TMP/SMX, reference compound]”, which “Percent Survival at Day 7” value (P. murina [1]; 50/250 mg/kg 3x/wk) is on record?
Answer: Its value is 100%.

Question: What about the “Percent Survival at Day 14” value (P. murina [1]; 50/250 mg/kg 3x/wk) of the same compound?
Answer: Its value is 90%.

Question: What about the “Percent Survival at Day 21” value (P. murina [1]; 50/250 mg/kg 3x/wk) of the same compound?
Answer: The value was 90%.

Question: What about the “Percent Survival at Day 28” value (P. murina [1]; 50/250 mg/kg 3x/wk) of the same compound?
Answer: Its value is 90%.

Question: What about the “Percent Survival at Day 35” value (P. murina [1]; 50/250 mg/kg 3x/wk) of the same compound?
Answer: The value was 90%.

Question: And the “Percent Survival at Day 42” value (P. murina [1]; 50/250 mg/kg 3x/wk)?
Answer: The value was 90%.

Question: And the hepatitis [5]?
Answer: Its hepatitis is 20 % of patients.

Question: And the thrombocytopenia [5]?
Answer: Its thrombocytopenia is 15 % of patients.
